Data taken from US7795206B2, “Peptide that inhibits janus kinase” (YM Biosciences Australia Pty Ltd, priority 2001, dated 2010).

How the values were obtained:
[1] = test system: Ba/F3 cells transformed to factor independence by ectopic expression of TEL/JAK2 fusion; assay: Ba/F3 proliferation assay, cells transformed to factor independence by TEL/JAK2; format: cell-based, murine; conditions: oncogenic JAK2 (PTK domain fused to PNT domain of TEL); FIG. 5
[2] = test system: wild-type Ba/F3 cells grown upon IL-3; assay: Ba/F3 proliferation assay (IL-3 dependent growth, MTT); format: cell-based, murine; conditions: peptide 1 μM to 100 μM in PBS; cell number after three days by MTT assay; FIG. 5
Description: FIG. 5. Ba/F3 cell assay: Inhibition of the growth of the IL-3 dependent growth of Ba/F3 cells has been brought about by the addition of a peptide derived from JAK2 PSL. PSLShort PAEFMRMI (SEQ ID NO:15) and PSLControl SPSKFRMPEAMIGND (SEQ ID NO:16) were added at concentrations ranging from IμM to 100 μM in phosphate buffered saline. Cell number after three days was measured by an MTT assay.
These peptides were tested for biological activity by means of a proliferation assay using the murine growth factor dependent hematopoietic cell line Ba/F3. On the basis of our hypothesis of the role of how the PSL region might work, we reasoned that if these peptides were to supplant the PSL from the KLD of JAK2, then the JAK PTK activity would thereby either become unregulated, resulting in a IL-3 independent growth phenotype, or the normal IL-3 dependent growth of these cells would be inhibited. […] We hypothesize that the activity of the PSLshort peptide was dependent upon the presence of the JAK2 KLD, and conclude that its mode of action is by displacement of the PSL of JAK2 from the JAK2 KLD, resulting in unprimed JAK2 molecules that cannot be triggered by IL-3. […]
The murine hematopoietic cell line Ba/F3 was grown in the presence of IL-3. […] Cell number after three days was measured by an MTT assay.

## PAEFMRMI (homo sapiens) [PSLshort]
[1]
  inhibition of growth of Ba/F3 cells transformed to factor independence by TEL/JAK2: unable to inhibit
[2]
  inhibition of growth of wild-type Ba/F3 cells grown upon IL-3: able to inhibit growth
